Laboratory results published in patent US9827219B2, “Compositions and methods for lowering levels of high-sensitivity C-reactive protein (HS-CRP) in a subject” (priority 2012, dated 2017).

System: hsCRP
Test: ANCHOR study, hsCRP (also by statin type and statin efficacy regimen)
Type: in vivo, human
Excerpt: Parameters (a)-(y) can be measured in accordance with any clinically acceptable methodology. For example, triglycerides, total cholesterol, HDL-C and fasting blood sugar can be sample from serum and analyzed using standard photometry techniques. VLDL-TG, LDL-C and VLDL-C can be calculated or determined using serum lipoprotein fractionation by preparative ultracentrifugation and subsequent quantitative analysis by refractometry or by analytic ultracentrifugal methodology. Apo A1, Apo B and hsCRP can be determined from serum using standard nephelometry techniques. Lipoprotein (a) can be determined from serum using standard turbidimetric immunoassay techniques. LDL particle number and particle size can be determined using nuclear magnetic resonance (NMR) spectrometry. Remnants lipoproteins and LDL-phospholipase A2 can be determined from EDTA plasma or serum and serum, respectively, using enzymatic immunoseparation techniques. Oxidized LDL, intercellular adhesion molecule-1 and interleukin-2 levels can be determined from serum using standard enzyme immunoassay techniques. These techniques are described in detail in standard textbooks, for example Tietz Fundamentals of Clinical Chemistry, 6th Ed. (Burtis, Ashwood and Borter Eds.), WB Saunders Company.
A multi-center, placebo-controlled, randomized, double-blind, 12-week study was performed to evaluate the efficacy and safety of >96% E-EPA in patients with fasting triglyceride levels ≧200 mg/dl and <500 mg/dl despite statin therapy (the mean of two qualifying entry values needed to be ≧185 mg/dl and at least one of the values needs to be ≧200 mg/dl). The primary objective of the study was to determine the efficacy of >96% E-EPA 2 g daily and 4 g daily, compared to placebo, in lowering fasting TG levels in patients with high risk for cardiovascular disease and with fasting TG levels ≧200 mg/dL and <500 mg/dL, despite treatment to LDL-C goal on statin therapy.
The population for this study was men and women >18 years of age with a body mass index ≦45 kg/m^2 with fasting TG levels greater than or equal to 200 mg/dl and less than 500 mg/dl and on a stable does of statin therapy (with or without ezetimibe). The statin must have been atorvostatin, rosuvastatin or simvastatin. The dose of statin must have been stable for ≧4 weeks prior to the LDL-C/TG baseline qualifying measurement for randomization. The statin dose was optimal such that the patients are at their LDL-C goal at the LDL-C/TG baseline qualifying measurements. The same statin at the same dose was continued until the study ended.
Approximately 648 patients were randomized at approximately 80 centers in the U.S. The study was a 18- to 20-week, Phase 3, multi-center study consisting of 2 study periods: (1) A 6- to 8-week screening period that included a diet and lifestyle stabilization, a non-statin lipid-altering treatment washout, and an LDL-C and TG qualifying period and (2) A 12-week, double-blind, randomized, placebo-controlled treatment period.
After confirmation of qualifying fasting LDL-C and TG values, eligible patients entered a 12-week, randomized, double-blind treatment period. At Visit 4 (Week 0), patients were randomly assigned to 1 of the following treatment groups: • >96% E-EPA 2 g daily, • >96% E-EPA 4 g daily, or • Placebo.
Approximately 216 patients per treatment group were randomized in this study. Stratification was by type of statin (atorvastatin, rosuvastatin or simvastatin), the presence of diabetes, and gender. […]

CC/C=C\C/C=C\C/C=C\C/C=C\C/C=C\CCCC(=O)OCC [AMR101, all-cis eicosa-5,8,11,14,17-pentaenoic acid ethyl ester]
hsCRP end-of-treatment value, median (ANCHOR ITT, 2 g/day, week 12): 2.5 mg/L
hsCRP change from baseline (median) (ANCHOR ITT, 4 g/day, week 12): −2.4%
hsCRP end-of-treatment value, median (ANCHOR ITT, 4 g/day, week 12): 2.0 mg/L
hsCRP median placebo-adjusted % change from baseline (ANCHOR, atorvastatin, AMR101 2 g/day vs placebo, P 0.6563): −9.3%
hsCRP change from baseline, median % (ANCHOR, atorvastatin, AMR101 2 g/day, week 12): 20.1%
hsCRP end-of-treatment value, median (ANCHOR, atorvastatin, AMR101 2 g/day, week 12, baseline 1.7): 2.3 mg/L
hsCRP median placebo-adjusted % change from baseline (ANCHOR, atorvastatin, AMR101 4 g/day vs placebo, P 0.0475): −36.7%
hsCRP change from baseline, median % (ANCHOR, atorvastatin, AMR101 4 g/day, week 12): −11.7%
hsCRP end-of-treatment value, median (ANCHOR, atorvastatin, AMR101 4 g/day, week 12, baseline 2.1): 1.5 mg/L
hsCRP median placebo-adjusted % change from baseline (ANCHOR, higher-efficacy statin regimen, AMR101 2 g/day vs placebo, P 0.5227): −8.3%
hsCRP change from baseline, median % (ANCHOR, higher-efficacy statin regimen, AMR101 2 g/day, week 12): 16.7%
hsCRP end-of-treatment value, median (ANCHOR, higher-efficacy statin regimen, AMR101 2 g/day, week 12, baseline 1.7): 2.2 mg/L
hsCRP median placebo-adjusted % change from baseline (ANCHOR, higher-efficacy statin regimen, AMR101 4 g/day vs placebo, P 0.0210): −28.6%
hsCRP change from baseline, median % (ANCHOR, higher-efficacy statin regimen, AMR101 4 g/day, week 12): 0.0%
hsCRP end-of-treatment value, median (ANCHOR, higher-efficacy statin regimen, AMR101 4 g/day, week 12, baseline 2.5): 2.0 mg/L
hsCRP change from baseline, median % (ANCHOR, lower-efficacy statin regimen, AMR101 2 g/day, week 12): 13.3%
hsCRP end-of-treatment value, median (ANCHOR, lower-efficacy statin regimen, AMR101 2 g/day, week 12, baseline 1.5): 1.7 mg/L
hsCRP median placebo-adjusted % change from baseline (ANCHOR, lower-efficacy statin regimen, AMR101 4 g/day vs placebo, P 0.8843): 4.0%
hsCRP change from baseline, median % (ANCHOR, lower-efficacy statin regimen, AMR101 4 g/day, week 12): 11.9%
hsCRP end-of-treatment value, median (ANCHOR, lower-efficacy statin regimen, AMR101 4 g/day, week 12, baseline 2.1): 2.4 mg/L
hsCRP median placebo-adjusted % change from baseline (ANCHOR, medium-efficacy statin regimen, AMR101 2 g/day vs placebo, P 0.2839): −8.3%
hsCRP change from baseline, median % (ANCHOR, medium-efficacy statin regimen, AMR101 2 g/day, week 12): 8.7%
hsCRP end-of-treatment value, median (ANCHOR, medium-efficacy statin regimen, AMR101 2 g/day, week 12, baseline 2.3): 2.6 mg/L
hsCRP median placebo-adjusted % change from baseline (ANCHOR, medium-efficacy statin regimen, AMR101 4 g/day vs placebo, P 0.0034): −22.8%
hsCRP change from baseline, median % (ANCHOR, medium-efficacy statin regimen, AMR101 4 g/day, week 12): −7.7%
hsCRP end-of-treatment value, median (ANCHOR, medium-efficacy statin regimen, AMR101 4 g/day, week 12, baseline 2.2): 1.8 mg/L
hsCRP median placebo-adjusted % change from baseline (ANCHOR, rosuvastatin, AMR101 2 g/day vs placebo, P 0.3922): −11.0%
hsCRP change from baseline, median % (ANCHOR, rosuvastatin, AMR101 2 g/day, week 12): 0.0%
hsCRP end-of-treatment value, median (ANCHOR, rosuvastatin, AMR101 2 g/day, week 12, baseline 1.6): 2.0 mg/L
hsCRP median placebo-adjusted % change from baseline (ANCHOR, rosuvastatin, AMR101 4 g/day vs placebo, P 0.0217): −31.4%
hsCRP change from baseline, median % (ANCHOR, rosuvastatin, AMR101 4 g/day, week 12): −1.2%
hsCRP end-of-treatment value, median (ANCHOR, rosuvastatin, AMR101 4 g/day, week 12, baseline 2.6): 1.9 mg/L
hsCRP median placebo-adjusted % change from baseline (ANCHOR, simvastatin, AMR101 2 g/day vs placebo, P 0.6562): −3.8%
hsCRP change from baseline, median % (ANCHOR, simvastatin, AMR101 2 g/day, week 12): 11.0%
hsCRP end-of-treatment value, median (ANCHOR, simvastatin, AMR101 2 g/day, week 12, baseline 2.2): 2.7 mg/L
hsCRP median placebo-adjusted % change from baseline (ANCHOR, simvastatin, AMR101 4 g/day vs placebo, P 0.0755): −13.6%
hsCRP change from baseline, median % (ANCHOR, simvastatin, AMR101 4 g/day, week 12): 0.0%
hsCRP end-of-treatment value, median (ANCHOR, simvastatin, AMR101 4 g/day, week 12, baseline 2.2): 2.2 mg/L
hsCRP median placebo-adjusted change from baseline (ANCHOR, 2 g/day, concomitant atorvastatin): statistically insignificant
hsCRP median placebo-adjusted change from baseline (ANCHOR, 2 g/day, concomitant rosuvastatin): statistically insignificant
hsCRP median placebo-adjusted change from baseline (ANCHOR, 2 g/day, concomitant simvastatin): statistically insignificant
hsCRP median placebo-adjusted change from baseline (ANCHOR, 2 g/day, high-efficacy statin therapy): statistically insignificant
hsCRP median placebo-adjusted change from baseline (ANCHOR, 2 g/day, low-efficacy statin therapy): statistically insignificant
hsCRP median placebo-adjusted change from baseline (ANCHOR, 2 g/day, medium-efficacy statin therapy): statistically insignificant
hsCRP median placebo-adjusted change from baseline (ANCHOR, 4 g/day, concomitant atorvastatin): −36.7%
hsCRP median placebo-adjusted change from baseline (ANCHOR, 4 g/day, concomitant rosuvastatin): −31.4%
hsCRP median placebo-adjusted change from baseline (ANCHOR, 4 g/day, concomitant simvastatin): statistically insignificant
hsCRP median placebo-adjusted change from baseline (ANCHOR, 4 g/day, high-efficacy statin therapy): −28.6%
hsCRP median placebo-adjusted change from baseline (ANCHOR, 4 g/day, low-efficacy statin therapy (e.g., simvastatin 5-10 mg/day)): statistically insignificant
